Data published in article PMC8073907, “Peptide targeting of lysophosphatidylinositol-sensing GPR55 for osteoclastogenesis tuning” (Cell Communication and Signaling : CCS, 2021).
Where two headings read alike, the source gives them in different places. Bridge positions count the residues as written; N and C are the ends. Ends that are not written are not given here. Peptide text beside a SMILES is read from it. * marks the point of attachment. FITC = O=C1OC2(c3ccc(O)cc3Oc3cc(O)ccc32)c2ccc(NC(=S)*)cc21; Ahx = NCCCCCC(=O)O

Columns and labels:
murine GPR55 = target: T1, murine GPR55 (Mus musculus, UniProt Q3UJF0); assay: Peptide binding to intact RAW264.7 cells (FACS); conditions: FITC-Scr; si-GPR55 + siGLO relative to si-NT + siGLO; 40 µg/mL, 15 min, 37 °C
T1 construct: endogenous in cells; host or cells: RAW264.7 mouse macrophages (wild-type, or treated with si-NT / si-GPR55 siRNAs)
Method: Wild-type or 48-h-interfered RAW264.7 cells were plated at a density of 1.2 × 10^6 cells/well in six-well plates, and the following day they were used for on-plate-binding assays, or for RNA extraction. Before peptide addition, the cells were washed twice with HBSS^++, and then incubated without or with 40 µg/mL FITC-P1 or FITC-Scr for the indicated times at 37 °C in HBSS^++ plus 0.01% faf-BSA. The incubations were stopped by three washes with PBS, detached by scraping with PBS plus 2 mM EDTA, and then suspended in PBS plus 3% BSA. Fluorescence intensity was evaluated by FACS, and reported as means of cell-associated fluorescence increases compared to cells incubated in absence of peptides.
To evaluate peptide-P1 specificity towards murine GPR55, RAW264.7 cells were Gpr55-interfered as above, but the duplexes were previously mixed with the double pmol amount of siGLO Red transfection indicator (Dharmacon). […] FITC-fluorescence intensity was evaluated by FACS, and reported as means of cell-associated fluorescence increases compared to cells incubated in absence of peptides.

human GPR55 [1] = conditions: ref [38]; read-out: affinity towards human GPR55; cited from earlier work
[2] = test system: GPR55-silenced HeLa cells; assay: LPI-induced ERK1/2 and p38 phosphorylation in shGPR55-HeLa clones (Western blot); type: cell-based, human; conditions: 10 µM soybean LPI, or 1 µM ionomycin 5 min
Method: For stable interference of GPR55, HeLa cells were plated at 1.5 × 10^5 cells/well in six-well plates in growth medium without antibiotics, and 24 h later, the cells were transfected with 1.7 µg/well OmicsLink short hairpin (sh)RNA expression clone CSHCTR001-CU6 (shCTRL) or clone HSH022476-3-CU6 (shGPR55) from GeneCopoeia (Rockville, MD, USA), using Lipofectamine 2000, according the manufacturer instructions. Forty-eight hours after transfection, HeLa clones stably expressing shRNAs were selected in growth medium containing 0.3 µg/mL puromycin. The efficiency of interference was monitored by real-time PCR using the primers listed in the Additional file 1: Table S1. HPRT1 was followed as a housekeeping gene.
Twenty-four hours after transfection (HEK293T, HeLa cells or clones) or 72 h after interference (RAW264.7 cells), the cells were washed twice with HBSS^++, serum deprived (HEK293T cells for 4 h in DMEM; HeLa cells and clones for 2 h in MEM plus 2 mM glutamine and 25 mM HEPES; RAW264.7 cells for 2 h in DMEM), washed once again with HBSS^++, incubated in stimulation buffer (HBSS^++ with 10 mM HEPES, 0.4% faf-BSA for HEK293T cells; HBSS^++ with 25 mM HEPES and 0.01% faf-BSA for HeLa cells, clones, and RAW264.7 cells) in the absence or presence of stimuli, at 37 °C for the indicated times. Incubations were terminated by washing the cells twice with cold HBSS^++, and the analyses were performed as reported below.
Cell lysates were obtained by scraping the cells into phospho-lysis buffer: 50 mM Tris–HCl, pH 7.5, 100 mM NaCl, 5 mM EDTA, 1% Triton X-100, 50 mM NaF, 40 mM β-glycerophosphate, 200 µM sodium orthovanadate, plus protease and phosphatase inhibitors (Roche). […]
Protein lysates were subjected to SDS-PAGE, and after electrophoresis, the proteins were transferred to a nitrocellulose membrane (PerkinElmer Life Science, Boston, MA, USA). […] The membranes were then washed twice with T-TBS and once with TBS for 5 min, and the signals were detected by ECL (Amersham Pharmacia, Piscataway, NJ, USA). […]

[3] = target: peptide-P1 (synthetic construct); conditions: cited from earlier work
ssGPR55-K80A = assay: GPR55-internalisation assay, K80A mutant (FACS); type: cell-based, human; conditions: data not shown
Description: The construct of haemagglutinin (HA)-tagged human GPR55 in pcDNA3 (HA-GPR55) was a gift from Prof. K. Mackie, Indiana University, Bloomington, IN, USA [39], while the construct ss-3 × HA-GPR55 in pcDNA3.1 (ssGPR55) with a triple HA tag at the N-terminus and an optimised signal sequence (ss, derived from amino acids 1–33 of the human growth hormone: […]) for efficient surface expression was from Prof. A. Irving, Dundee University, UK [40]. For both constructs, mutations were introduced by site-directed mutagenesis using QuickChange kits (Stratagene, La Jolla, CA, USA), according to the manufacturer instructions. The primers for the K80A mutation were 5′-[…]-3′ and 5′-[…]-3′ (Tm, 70.6 °C), and for Q87A were 5′-[…]-3′ and 5′-[…]-3′ (Tm, 73.1 °C).
HeLa cells were plated at 1.5 × 10^5 cells/well in six-well plates in their growth medium without antibiotics. […]
For the GPR55-internalisation assay, after stimulation, the HeLa cells were washed twice with cold HBSS^++, stained while adhered with the monoclonal anti-HA antibody (1:1000) in PBS plus 3% BSA for 1 h on ice, washed three times with cold PBS, incubated with the Alexa488-tagged anti-mouse antibody (1:800) in PBS plus 3% BSA for 45 min on ice. […] The collected cells were centrifuged at 300×g, suspended in PBS plus 3% BSA, and analysed by FACS.

RAW264.7 cells [4] = assay: RANKL-induced transcription of osteoclastogenesis markers in RAW264.7 cells (real-time PCR); type: cell-based, murine; conditions: 150 nM (0.2 µg/mL) peptide, 15 ng/mL RANKL, 72 h
Method: Total RNA was extracted using RNeasy isolation kits, cDNAs were obtained using QuantiTect Reverse Transcription kits, and real-time PCRs were performed with QuantiTect SYBR Green PCR kits (all from Qiagen, Hilden, Germany), according to the manufacturer instructions. The primers used for the real-time PCRs and their annealing temperatures are listed in the Additional file 1: Table S1. Human hypoxanthine phosphoribosyltransferase 1 (HPRT1) or murine β2-microglobulin were followed as housekeeping genes. The real-time PCR programme consisted of an initial 15 min at 95 °C, and then 45 cycles as follows: 94 °C for 15 s, annealing temperature of each primer for 30 s, and 72 °C for 30 s. The real-time PCR machine used was a LightCycler 480 Instrument II (Roche, Indianapolis, IN, USA).
(§1) For transient interference of Gpr55, RAW264.7 cells were plated at 6 × 10^5 cells/well in six-well plates in growth medium without antibiotics. Twenty-four hours later, the cells were transfected with 250 pmol/well non-targeting small-interfering (si)RNAs (si-NT; siGENOME siRNA Pool #2; D-001206-14; Dharmacon, Chicago, IL, USA) or Gpr55-specific siRNAs (si-GPR55; siGENOME mouse GPR55 SMART pool; M-043590-01; Dharmacon) using Lipofectamine LTX and Plus Reagent, according to the manufacturer instructions. Twenty-four hours later, the cells were plated for the different assays or for RNA extraction. The efficiency of interference was monitored by real-time PCR after 72 h of interference, using the primers listed in the Additional file 1: Table S1. β2-microglobulin was followed as a housekeeping gene.
For the osteoclastogenesis in-vitro assay, RAW264.7 cells were plated in differentiation medium (α-MEM with 10% heat-inactivated FBS, 2 mM L-glutamine, 100 U/mL penicillin, and 100 ug/mL streptomycin) at a density of 5 × 10^3 cells/well in 24-well plates on coverslips for morphological analysis, or at 2 × 10^4 cells/well in six-well plates for RNA extraction. Twenty-four hours later and every 48 h, the medium was replaced and the cells were treated with 15–30 ng/mL RANKL with DMSO and/or PBS as carriers, or with GPR55 antagonists/ agonists (0.5 µM ML-191, 30 µM O1918, 0.5 µM CBD, 0.5 μM CID16020046 1 µM soybean LPI, 1 μM ML-184), or with the peptides (150 nM peptide-P1; or the irrelevant peptide, Irr_P). Twenty-four hours after the last addition, the cells were fixed with 4% paraformaldehyde for morphological analyses or harvested for RNA extraction (see above).

RAW264.7 cells [5] = assay: Osteoclast syncytium formation (nuclei/cell); type: cell-based, murine; conditions: 150 nM (0.2 µg/mL) peptide, 72 h RANKL
Method: as §1
For the evaluation of osteoclast syncytium formation, the nuclei of multinucleated cells were counted in a blinded manner using a 63 × objective, moving across the coverslip in the vertical and horizontal directions.
For the osteoclastogenesis in-vitro assay, RAW264.7 cells were plated in differentiation medium (α-MEM with 10% heat-inactivated FBS, 2 mM L-glutamine, 100 U/mL penicillin, and 100 ug/mL streptomycin) at a density of 5 × 10^3 cells/well in 24-well plates on coverslips for morphological analysis, or at 2 × 10^4 cells/well in six-well plates for RNA extraction. […]

[6] = test system: EHEB and DeFew cells (two human B-lymphoblastoid cell lines); conditions: ref [38], cited from earlier work
human GPR55 [7] = conditions: ref [38]; cited from earlier work
Description: GPR55 is overexpressed in several tumour cells, with GPR55 expression shown to correlate with tumour aggressiveness and GPR55 activation to promote cancer-cell proliferation both in cell culture and in xenografts in mice. Therefore, we previously attempted to identify peptides that bind to human GPR55, for innovative targeting of GPR55 for potential therapeutic and/or diagnostic applications. Osteoclasts are also among the cells with the highest expression of GPR55 [9], and as GPR55 is involved in their differentiation, its targeting might be instrument ...

peptide-P1 = target: T2, peptide-P1 (synthetic construct, disulfide 1-9 (inferred)); assay: FACS binding of FITC-peptide to RAW264.7 cells
T2 chain: {FITC-Ahx}-CKKNSPTLC

Molecule: KCLTSNCPK (disulfide 2-7 (inferred)) [FITC-Scr, FITC-conjugated scrambled (…) peptide]
- effect of Gpr55 interference on binding (murine GPR55): not significantly affected by Gpr55 interference

Molecule: CC(C)C[C@@H]1NC(=O)[C@H]([C@@H](C)O)NC(=O)[C@@H]2CCCN2C(=O)[C@H](CO)NC(=O)[C@H](CC(N)=O)NC(=O)[C@H](CCCCN)NC(=O)[C@H](CCCCN)NC(=O)[C@@H](NC(=O)CCCCCNC(=S)Nc2ccc3c(c2)C(=O)OC32c3ccc(O)cc3Oc3cc(O)ccc32)CSSC[C@@H](C(=O)O)NC1=O [FITC-P1] ({FITC-Ahx}-CKKNSPTLC-OH; disulfide 1-9; N-terminus and C-terminus assumed)
- Kd (human GPR55 [1]): 20 µM

Molecule: C[C@H](CCC(=O)O)C[C@H](C)C[C@H](C)C(=O)/C=C(\O)[C@H](C)C[C@H](C)C/C=C/[C@@H](C)[C@@H](O)[C@@H](C)[C@@H](O)C[C@@H]1CC[C@@](C)([C@H]2CC[C@@](C)([C@@H](C)O)O2)O1 [ionomycin]
- ERK1/2 and p38 activation [2]: still activated these pathways

Molecule: GPR55 (from UniProt Q9Y2T6)
- Kd [3]: 20 µM

Molecule: CKKNSPTLC (disulfide 1-9 (inferred)) [peptide-P1]
- regulation of wild-type and GPR55-K80A mutant internalisation (ssGPR55-K80A): comparable regulation of both wild-type and GPR55-K80A mutant internalisation
- inhibition of osteoclast maturation (five differentiation markers) (RAW264.7 cells [4]): significant inhibition of osteoclast maturation
- reduction of RANKL-induced Cathepsin-k mRNA by peptide (RAW264.7 cells [4]; three independent experiments): 40%
- reduction of RANKL-induced Ctr mRNA by peptide (RAW264.7 cells [4]; three independent experiments): 35%
- reduction of RANKL-induced Mmp-9 mRNA by peptide (RAW264.7 cells [4]; three independent experiments): 50%
- reduction of RANKL-induced Nfatc1 mRNA by peptide (RAW264.7 cells [4]; three independent experiments): 30%
- reduction of RANKL-induced Trap mRNA by peptide (RAW264.7 cells [4]; three independent experiments): 35%
- effect on RANKL-induced osteoclast syncytium formation, peptide (RAW264.7 cells [5]): did not have any significant effects
- inhibition of GPR55-dependent proliferation [6]: inhibited GPR55-dependent proliferation of two human B-lymphoblastoid cell lines
- inhibition of GPR55-dependent proliferation ([6]; listed as Peptide-P1): inhibit GPR55-dependent proliferation of EHEB and DeFew cells
- competition with LPI action (human GPR55 [7]): did not compete with LPI action
- human GPR55 internalisation (human GPR55 [7]): inducing human GPR55 internalisation in a β-arrestin–independent manner

B1: GPR55 (protein)
chain: MSQPERDNCSFDSVDKLTRTLQLAVHIPTFLLGLVLNLLAIRGFSAFLKKRKLDYIATSIYMINLAVFDLLLVLSLPFKMVLPQVESPLPSFCTLVECLYFISMYGSVFTICFISLDRFLAIQYPILASHLRSPRKTFGICCIIWMLVWIGSIPIYTFHREVERYKCFHNMSDVTWSASVFFPLEIFGFLLPMGIMGFCSYRSIHILLRRPDSTEDWVQQRDTKGWVQKRACIWTIATNLVIFVVSFLPVHLGFFLQYLVRNRFILDCRMKQGISLFLQLSLCFSNINCCLDVFCYYFVIKEFRMRIKAHRPSTIKLVNQDTMVSRG
- Kd (peptide-P1): 22.7 µM
